Data published in patent US20260207551A1, “PHOSPHOGLICERATE DEHYDROGENASE INHIBITORS FOR THE TREATMENT OF FIBROSIS” (CHIESI FARMACEUTICI S.P.A., priority 2022, published 2026).

What was measured:
αSMA = experiment: Phenotypic assay: high content aSMA staining in NHLF cells; assay type: cell-based, Human; conditions: NHLF, 72 h incubation
Description: NHLF cells (Lonza #CC2512) were seeded as 2000 cells/well in 384-well plates in MEM medium w/o serine and glycine (Sigma #M2279)+1% pen/strep+5 mM L-glutamine +10% FBS and incubated overnight at 37° C., 5% CO2.
The next day, cells were washed with PBS and starvation MEM medium w/o serine and glycine (0% FBS) was added and cells were incubated overnight at 37° C., 5% CO2. The day after, cells were pre-incubated with compounds or vehicle (0.3% DMSO) for 1 h. Compounds were tested at 9 consecutive 3-fold dilutions starting from 30 μM. Each compound was tested in duplicate. Cells were further incubated for 72 h at 37° C., 5% CO2, 95% humidity. After 72 h of incubation, αSMA expression was quantified using immunostaining: • Fixation in 4% paraformaldehyde, • Blocking with 3% BSA, 2% FBS, 0.2% Triton-X in PBS, • Primary ab. anti-αSMA (AbCam #ab7817) diluted 500× in blocking buffer • Anti-mouse secondary ab. AF488 (ThermoFisher #A11029) • % of αSMA positive cells was determined by High Content Imaging (Molecular Device), data analysis was performed using MetaXpress software (Molecular Devices) and % of αSMA positive was further used to calculate % of inhibition for tested compounds. Total cell number was determined by Hoechst staining and % of viability over TGFβ stimulated controls was calculated.

Collagen I = experiment: Fibroblast to myofibroblast transition (FMT) in vitro assay: Collagen I detection; assay type: cell-based; conditions: Homo sapiens, NHLF, 72 h, read-out: Collagen-I pIC50 (converted)
synthesis of 13C3-serine = experiment: PK/PD model: in vivo [13C6] glucose tracing, inhibition of 13C3-serine synthesis; design: species or system mouse male (C57BL/6J); conditions: 1 h; for decrease of brain serine concentration: not statistically significant
Description: As PHGDH catalyzes the rate-limiting step of glucose-derived serine synthesis, a pharmacokinetic/pharmacodynamic (PK/PD) experiment aimed to assess the inhibition of the synthesis of ^13C3-serine after oral administration of ^13C6-glucose was performed in mouse male (C57BL/6J).
Animals were fasted overnight before treatment. Following 0.5 h from administration of either Compound 19 at dose of 300 mg/kg or vehicle (0.5% Tween 80, 0.5% Methylcellulose in H2O), ^13C6-glucose was administered by oral gavage (2 g/kg, Merck Life Science Srl). Blood, lung, and brain samples were collected at 1 h, 6.5 h and 24.5 h after treatment with Compound 19 or vehicle.
The tissue concentration of ^13C3-serine was determined by a liquid chromatography-tandem mass spectrometry (LC/MS/MS) assay. GraphPad Prism (version 8.1.2) was used for drawing graphs and for statistical analysis. Plasma or tissue homogenate samples (tissues were homogenized with a water/acetonitrile 50/50 mixture) were extracted with 3 volumes of acetonitrile. Supernanatant was injected into HPLC system (Agilent 1260 Quaternary Pump equipped with an Agilent 1200 High Performance Autosampler SL; Agilent), using a Kinetex EVO C18 analytical column (100 A, 50×2.1 mm, 2.6 μm; Phenomenex) for the analysis of Compound 19 or an InfinityLab Poroshell 120 Hilic-Z (50×2.1 mm 2.7 μm; Agilent) for the analysis of ^13C3-serine. The mobile phases consisted of 0.1% formic acid in water (solvent A) and 0.1% formic acid in acetonitrile (solvent B); chromatographic separation was performed with gradient elution method (see conditions below): • Compound 19 (0.0-0.5 min, 10% B; 0.5-3.0 min, gradient to 90% B; 3.0-5.0 min. 90% B; 5.0-6.0 min, gradient to 10% B; 6.0-10.0 min, 10% B—flow rate: 0.4 mL/min). • S^13C3-serine (0.0-0.5 min, 95% B; 0.5-4.0 min, gradient to 60% B; 4.0-5.0 min, 60% B; 5.0-6.0 min, gradient to 95% B; 6.0-10.0 min, 95% B—flow rate: 0.4 mL/min).
Mass spectrometric analysis was performed on a linear ion trap triple quadrupole mass spectrometer (4000 Q TRAP; AB SCIEX) equipped with a turbo spray ion source; mass spectrometer was operated in positive ion mode and quantification was achieved by multiple reaction monitoring (MRM) mode. Peak integration was performed using Analyst (version 1.6.2.). GraphPad Prism (version 8.1.2) was used for drawing graphs and for statistical analysis.
After 0.5 h from administration of Compound 19a at dose of 3, 10, 30, 100 and 300 mg/kg po, Compound 19 at dose of 300 mg/kg po or vehicle po (0.5% Tween 80, 0.5% Methylcellulose in H2O), mice received ^13C6-glucose by oral gavage (2 g/kg, Merck Life Science Srl). […] Blood was withdrawn by cardiac puncture and collected in heparin tubes.

[1] = tested on: bleomycin-induced pulmonary fibrosis; experiment: Bleomycin-induced pulmonary fibrosis in male mice (Example 6); assay type: in vivo, Male C57BL6/J mice
Description: The effect of Compound 19a was evaluated in a murine model (C57BL/6J mouse strain) in which fibrosis was induced by a double oropharyngeal (OA) instillation of bleomycin. The Compound 19a was administered under therapeutic regimen for 14 days, starting the treatments at day 7 from the first instillation of Bleomycin OA up to the day 21, considered the endpoint for this model.
All mice were maintained under pathogen-free conditions and had free access to food and water.
Lung injury was induced by double OA instillation of bleomycin hydrochloride (BLM, BAXTER, Deerfield, IL, USA) at day 0 and day 4 at the dose of 0.03 U/mouse in […] of saline solution (NaCl 0.9%). Control animals received double OA instillation of […] of saline solution.
The Compound 19a was orally administered twice daily at the three doses of 3, 30 and 100 mg/Kg 10 mL/Kg, using as vehicle for dissolution the 0.5% Tween 80, 0.5% Methylcellulose in H2O.
On day 21, the respiratory system mechanics were measured using the FlexiVent System (SCIREQ Inc., Montreal Qc, Canada) (Vanoirbeek et al., 2010).
Briefly, mice were anesthetized by intraperitoneal injection of ketamine (Anesketin®, Dechra Inc., Handelsweg, NL) and xylazine (Xilagesic®, Calier Inc., Barcelona, ES) solution (100 mg/Kg and 10 mg/Kg, respectively). Once anesthesia was achieved, to analyze forced vital capacity (FVC), anesthetized mice were tracheotomized using an 18-gauge metal cannula, connected via an endotracheal cannula to the FlexiVent and ventilated at a respiratory rate of 150 breaths/min and tidal volume of 10 mL/Kg against a positive end-expiratory pressure of 3 cm H2O to achieve a mean lung volume close to that during spontaneous breathing. To prevent spontaneous breathing mice also received pancuronium bromide at 1 mg/Kg intraperitoneally. FlexiVent software version 8.1 was used to perform the perturbations.
Immediately after the in-life evaluation, plasma and bronchoalveolar lavage fluid (BALF) samples were collected.
First, blood was collected by cardiac puncture, and plasma was obtained after centrifugation of blood at 2000×g and 4° C. for 10 minutes.
Subsequently, the lungs were gently rinsed three times using a tracheal cannula with 0.6 mL of clear BAL solution. The obtained BALF was centrifuged at 1000×g and 4° C. for 10 minutes. The cell-free supernatant was used for biomarkers quantitative determination.
The following biomarkers were determined in BALF and plasma samples by commercially available ELISA kits: Collagen I (evaluated in BALF), an index of collagen accumulation; matrix metallopeptidase 7 (MMP-7, evaluated in BALF), indicator of aberrant fibrogenesis and ECM remodeling and surfactant protein D (SP-D, evaluated in PLASMA), marker of alveolar epithelial cell damage and dysfunction.
Lastly, the entire lungs were resected, fixed with formalin and embedded in paraffin. Sections were stained with Masson's trichrome to assess the grade and severity of fibrosis and collagen deposition.

[2] = Compound 19a 100 mg/Kg bid, Nintedanib esylate 50 mg/Kg bid

## CC(C)C(C(=O)O)c1ccc(C2(NC(=O)c3cc4c(Cl)c(Cl)ccc4n3C)CCOC2)cc1 (racemic) [Compound 19a, Diasteroisomer 2 of (±)-2-(4-(3-(4,5-Dichloro-1-methyl-1H-indole-2-carboxamido)tetrahydro-furan-3-yl)phenyl)-3-methylbutanoic acid]
αSMA
  aSMA pIC50: 6.6
Collagen I
  IC50: 0.126 µM
Synthesis of 13C3-serine; 100 mg/kg po
  decrease of brain serine concentration: 12%
Synthesis of 13C3-serine; 300 mg/kg po
  decrease of brain serine concentration: 30%
Synthesis of 13C3-serine; plasma and lung, both tissues, po, estimated
  ED80 (inhibition of labelled serine): around 30 mg/kg
[1]; 100 mg/Kg
  fibrotic tissue quantification by automated analysis (FIG. 19B): effect comparable to Nintedanib
[1]; [2]
  reduction of Collagen I in BALF: 52%
  reduction of MMP-7 in BALF: > 100%
  reduction of SP-D levels in plasma: 74%
[1]; Compound 19a 100 mg/kg bid, Nintedanib esylate 50 mg/Kg bid, vs BLM/vehicle
  improvement of FVC decline: 77%
[1]; day 21, dose not stated
  reduction of Ashcroft score: 56%
